Laboratory results as given in patent publication US9080216B2, “Genetic changes in ATM and ATR/CHEK1 as prognostic indicators in cancer” (University of Pittsburgh-of the CommonWealth System of …, priority 2007, dated 2015).
“Also recorded” adds a separate entry of the source.

Assays:
Assay type in all cases: cell-based, human
[1] = tested on: UPCI:SCC084; assay: Clonogenic cell survival assay
Protocol: (§1) Clonogenic Cell Survival Assay. To assess cell survival in response to ionizing radiation, clonogenic survival assays were performed. Two thousand cells were seeded in 60 mm Petri dishes and allowed to adhere overnight. […] The culture medium was replaced at the end of 7 days. Untreated cells cultured in parallel were used to determine relative plating efficiency. After 12 days, the cells were fixed with 70% ethyl alcohol and stained with Giemsa (Sigma, St. Louis, Mo.) and the number of colonies was assessed. A colony was defined as a cluster of ≧50 cells, having formed from a single cell. All experiments were performed in triplicate, and the error reported as one standard deviation from the mean.

[2] = tested on: UPCI:SCC104; assay: Clonogenic cell survival assay
Protocol: as §1
SiRNA Transfection. ATR or CHEK1 inhibitions were carried out using the respective siRNAs for a specific knockout. RNA interference of ATR and CHEK1 was performed using Smartpool ATR and CHEK1 duplexes respectively, obtained from Dharmacon (Lafayette, Colo.). Nonspecific (scrambled) control duplexes (Dharmacon) were used for nonspecific siRNA treatment. The duplexes were reconstituted in 1×DNA-free RNA re-suspension buffer provided by Dharmacon and aliquoted according to the manufacturer's instructions. For transfection, the OSCC cell lines were seeded in 60 mm dishes or T25 flasks and transfected with siRNA duplexes using Lipofectamine 2000 (Invitrogen) according to the manufacturer's instructions. The individual siRNA duplex sequences are enumerated in Appendix B. The final working siRNA concentration achieved was between 90-100 nM. We used cells treated with no vector (untreated), empty vector (mock-treated), cells transfected with a nonspecific siRNA, and a specific ATR or CHEK1 siRNA for all of our experiments. At the end of 48 h post-transfection, appropriate treatments (ionizing radiation or aphidicolin treatment) were carried out as described earlier.

[3] = tested on: UPCI:SCC104; assay: Cell cycle analysis by flow cytometry; conditions: 1 mM or 5 mM caffeine 1 h prior to 5 Gy IR
Protocol: Cell Cycle Analysis by Flow Cytometry. […] These cells were washed with phosphate-buffered saline (PBS), and fixed with 70% ethanol. The cells were then treated with 80 μg/ml RNase A and 50 μg/ml propidium iodide (Invitrogen-Molecular Probes, Carlsbad, Calif.) for 45 min at 37° C. The stained cells were analyzed using a Coulter Epics XL Flow Cytometer in the UPCI Flow Cytometry Facility. SiRNA Transfection. ATR or CHEK1 inhibitions were carried out using the respective siRNAs for a specific knockout. RNA interference of ATR and CHEK1 was performed using Smartpool ATR and CHEK1 duplexes respectively, obtained from Dharmacon (Lafayette, Colo.). Nonspecific (scrambled) control duplexes (Dharmacon) were used for nonspecific siRNA treatment. The duplexes were reconstituted in 1×DNA-free RNA re-suspension buffer provided by Dharmacon and aliquoted according to the manufacturer's instructions. For transfection, the OSCC cell lines were seeded in 60 mm dishes or T25 flasks and transfected with siRNA duplexes using Lipofectamine 2000 (Invitrogen) according to the manufacturer's instructions. The individual siRNA duplex sequences are enumerated in Appendix B. The final working siRNA concentration achieved was between 90-100 nM. […]

[4] = tested on: OSCC; assay: Cell cycle analysis by flow cytometry after caffeine and irradiation; conditions: following irradiation
Protocol: Cell Cycle Analysis by Flow Cytometry. […] These cells were washed with phosphate-buffered saline (PBS), and fixed with 70% ethanol. The cells were then treated with 80 μg/ml RNase A and 50 μg/ml propidium iodide (Invitrogen-Molecular Probes, Carlsbad, Calif.) for 45 min at 37° C. The stained cells were analyzed using a Coulter Epics XL Flow Cytometer in the UPCI Flow Cytometry Facility.

[5] = different doses of caffeine, compared to UPCI:SCC066, 105 and control NHOK
[6] = cell lines with an upregulated ATR-CHEK1 pathway including GM09607 (AT cells)

## Cn1c(=O)c2c(ncn2C)n(C)c1=O [caffeine]
[1]; 0.5 mM caffeine, UPCI:SCC084, absence of any DNA damaging agents
  reduction in colony survival: > 50%
[1]; 1 mM caffeine, UPCI:SCC084
  colony survival: complete absence of survival; also recorded: Complete inhibition of colony formation
[1]; [5]
  sensitivity to caffeine (clonogenic cell survival): increased sensitivity
[2]; 0.5 mM caffeine, UPCI:SCC104, absence of any DNA damaging agents
  reduction in colony survival: > 50%
[2]; 1 mM caffeine, UPCI:SCC104
  colony survival: complete absence of survival
[2]; [5]
  sensitivity to caffeine (clonogenic cell survival): increased sensitivity
[3]
  G2M accumulation: dose dependent reduction
  sub G0 peak (dead cells): increase
[4]; cell lines with an intact G1 checkpoint and normal ATR-CHEK1 expression
  sensitivity to caffeine (cell cycle profile): did not demonstrate any sensitivity
[4]; [6]
  accumulation of cells in the S and G2M phases: clearly reduced
  sub-G0 population (dead cells): increased
